Results published in article PMC4474691, “Leukemia-Associated Mutations in Nucleophosmin Alter Recognition by CRM1: Molecular Basis of Aberrant Transport” (PLoS ONE, 2015).
Values belong to the substance of their own block, whether it stands above or below them.

Key:
CRM1^HA [1] = molecular target: T1, CRM1^HA (Mus musculus, UniProt Q6P5F9, L431A/V430A/V432A); test: Isothermal titration calorimetry, CRM1^HA / NES; assay type: binding; conditions: ITC, 20°C; for Kd: read-out: KD
T1 construct: His-ZZ (cleaved yes); made in house; host or cells: Escherichia coli BL21-CodonPlus (DE3)
T1 sequence (Q6P5F9 1-1062 V430A/L431A/V432A limits assumed): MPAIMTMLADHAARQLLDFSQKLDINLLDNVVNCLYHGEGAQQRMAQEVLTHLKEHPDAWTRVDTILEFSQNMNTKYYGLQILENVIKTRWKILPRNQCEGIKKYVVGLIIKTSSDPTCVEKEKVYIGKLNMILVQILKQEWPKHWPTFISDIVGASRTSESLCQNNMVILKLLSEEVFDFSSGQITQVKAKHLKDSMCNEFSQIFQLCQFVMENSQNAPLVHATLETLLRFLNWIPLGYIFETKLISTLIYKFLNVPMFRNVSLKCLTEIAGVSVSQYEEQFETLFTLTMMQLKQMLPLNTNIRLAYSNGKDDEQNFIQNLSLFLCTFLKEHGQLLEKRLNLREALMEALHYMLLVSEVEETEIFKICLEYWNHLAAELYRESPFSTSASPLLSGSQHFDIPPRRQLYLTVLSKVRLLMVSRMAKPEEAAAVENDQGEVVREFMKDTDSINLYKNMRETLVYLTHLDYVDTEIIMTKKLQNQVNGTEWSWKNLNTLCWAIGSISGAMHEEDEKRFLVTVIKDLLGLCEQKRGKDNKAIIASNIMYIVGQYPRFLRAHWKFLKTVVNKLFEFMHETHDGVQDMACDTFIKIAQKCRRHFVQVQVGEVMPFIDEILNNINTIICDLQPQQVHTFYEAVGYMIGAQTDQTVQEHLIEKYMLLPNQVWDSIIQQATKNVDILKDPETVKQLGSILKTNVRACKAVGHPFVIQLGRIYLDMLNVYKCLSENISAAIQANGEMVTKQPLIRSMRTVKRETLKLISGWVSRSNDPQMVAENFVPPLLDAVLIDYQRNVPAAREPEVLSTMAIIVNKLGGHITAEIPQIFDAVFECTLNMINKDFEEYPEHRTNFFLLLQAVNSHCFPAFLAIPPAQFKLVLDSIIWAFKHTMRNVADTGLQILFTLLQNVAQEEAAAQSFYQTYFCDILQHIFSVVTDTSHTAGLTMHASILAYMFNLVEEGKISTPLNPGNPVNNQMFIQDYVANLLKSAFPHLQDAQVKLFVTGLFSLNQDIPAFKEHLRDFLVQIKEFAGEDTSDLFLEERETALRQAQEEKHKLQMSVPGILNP
Method: Isothermal titration calorimetry (ITC)
ITC measurements were carried out using a VIP-ITC MicroCalorimeter (MicroCal, Inc., Northampton, MA). TFP and YFP constructs, as well as CRM1^HA, were dialyzed in a buffer containing 20 mM HEPES, pH 7.4, 50 mM NaCl, 1 mM TCEP, 1 mM MgCl2, and degassed prior to the experiment. Untagged peptides (AS: QDLCLAVEEVSLRK, AL: EAIQDLCLAVEEVSLRK, ES: QDLWQSLAQVSLRK and EL: EAIQDLWQSLAQVSLRK), N-acetylated and 95% pure, were purchased from Proteogenix (Schiltigheim, France) and resuspended in the ITC buffer. Measurements were performed at 20°C. TFP-NES, YFP-NES or NES peptides at 35–180 μM were titrated onto CRM1^HA at 2–14 μM. Injections of 6 μL were performed at 320 seconds interval (the first injection always was of 1 μL and is not considered in data analysis). To determine the thermodynamic parameters of NPM / importin interaction, importin α, importin Δα or importin α/β at 45–60 μM were titrated onto NPM (1–1.2 μM pentamer) in 50 mM Tris/HCl, pH 7.5, 100 mM NaCl, 2 mM TCEP, and 10% glycerol. […] “Reverse” titrations, where 20–30 μM NPM was titrated onto 7–10 μM of the different importins were also performed and yielded similar results.
The reaction heat of each injection is related to the calorimetric enthalpy of binding, ΔH^0. The binding isotherms, ΔH^0 vs. molar ratio, were analyzed with an independent binding sites model using MicroCal Origin software. The fit of the binding curve yields the binding constant KA (KD = 1/KA) and the enthalpy ΔH^0 of the binding reaction. The Gibbs free energy of binding ΔG^0 and the entropy ΔS^0 are determined from the basic thermodynamic expressions: ΔG^0 = -RTlnKA = ΔH^0−TΔS^0, where R and T are the gas constant and the absolute temperature, respectively.
Fig 5 Analysis of CRM1^HA/TFP-NES interaction by ITC. Isothermal titration of CRM1^HA with TFP-mutE(NES). […] The titration of negative control TFP-Cter (180 μM) onto CRM1^HA (14 μM) (circles) is also shown for comparison.

CRM1^HA [2] = molecular target: T1, CRM1^HA; test: Fluorescence anisotropy binding assay, CRM1^HA; conditions: 0–60 μM CRM1^HA, 25°C
Method: Fluorescence anisotropy binding assays
To estimate CRM1 binding affinities for NES motifs we monitored binding with a fluorescence-polarization assay based on previously described approaches. The increase in fluorescence anisotropy of TFP/YFP when the TFP/YFP-NES construct (50 nM) binds to 0–60 μM CRM1 (either CRM^HA or wild type) was recorded at 25°C with a 8100 SLM-Aminco spectrofluorometer in buffer 20 mM Tris/HCl, pH 7.4, 50 mM NaCl, 5 mM DTT, 2 mM MgCl2. Excitation and emission wavelengths were 463, 500 nm for TFP and 463, 533 nm for YFP, and slits width 4 and 8 nm, respectively.
Fig 4 Binding of CRM1 to TFP-NES constructs. (A) Scheme of the engineered TFP constructs, showing the sequence of the NES motifs. Φ residues are highlighted in red. (B) Titration of CRM1 onto the different TFP constructs (50 nM), at 25°C, in buffer 20 mM Tris/HCl, pH 7.4, 50 mM NaCl, 5 mM DTT, 2 mM MgCl2: Left panel: Binding of CRM1^HA (solid symbols) or wild type CRM1 (empty symbols) to TFP-PKI(NES). Right panel: Binding of CRM1^HA to TFP-mutE(NES) (triangles) and TFP-mutA(NES) (squares). Fraction bound was calculated from the relative increase in fluorescence anisotropy of TFP (λexc 463 nm, λem 500 nm). Error bars correspond to at least three measurements per CRM1 concentration.
We next used the TFP-(NES) constructs to monitor CRM1^HA binding to each motif, using the change in fluorescence anisotropy upon complex formation as a readout (Fig 4B), as previously described. […] The different nature of the fluorescent tag, and/or the linker between the fluorescent protein and the NES (2 residues longer in the YFP-PKI construct) could explain the discrepancy. […] To isolate the CRM1 / NES interaction under study from the influence of the tag protein, we have also conducted binding assays with peptides corresponding to the NES motifs (see below).

CRM1^HA [3] = molecular target: T1, CRM1^HA; test: Ni-NTA chromatography of TFP-NES / CRM1^HA complex formation; assay type: binding; conditions: 2.5 mg His-tagged TFP construct on 1 mL Histrap FF, 1 mL CRM1^HA 18 μM; 50 mM Tris/HCl pH 8.0, 500 mM NaCl; SDS-PAGE
Description: Although the relative potency of the NESs acquired by the different NPM mutants has been compared using an in vivo export assay, their CRM1-binding affinities have not yet been determined. We cloned the NESs of mutant A and E as C-terminal fusions to a teal fluorescent protein (TFP) (Fig 4A). As a reference, we generated an equivalent construct with the well-characterized NES of protein kinase inhibitor (PKI). We first tested the binding of CRM1^HA to the TFP-NES constructs using Ni-NTA chromatography. His-tagged TFP constructs were bound to the Ni-NTA column, and an excess of untagged CRM1^HA was then injected (S4 Fig).
Supplementary file pone.0130610.s004.tif: S4 Fig TFP-NES / CRM1^HA complex formation shown by Ni-NTA chromatography. 2.5 mg of the His-tagged TFP construct were loaded on a 1 mL Histrap FF (GE Healthcare) in buffer 50 mM Tris/HCl, pH 8.0, 500 mM NaCl, 1 mM TCEP, 2 mM MgCl2, 5% glycerol, containing 15 mM imidazole. After washing with the same buffer, 1 mL of CRM1^HA at 18 μM was injected at 0.1 mL/min flow rate. Unbound CRM1^HA was collected, and then bound proteins were eluted with 2 M imidazole. SDS-PAGE of elution fractions: Unbound (free) CRM1^HA and the fraction eluted with imidazole, containing both the His-tagged TFP construct along with bound CRM1^HA. (TIF) Click here for additional data file.

HeLa cells = test: In vivo nuclear export assay, Rev(1.4)-GFP; assay type: cell-based; conditions: Rev(1.4)-NPMcNES-GFP in HeLa cells, actinomycin D, >200 cells per sample
Description: The clone of Myc3 tagged human NPM in pCDNA3.1 for eukaryotic expression was kindly provided by Dr. Yanping Zhang (University of Texas). From this clone, we used PCR to generate the AML-associated mutants A and E [27], by incorporating the mutations in the 3´oligonucleotide. The three NPM variants (wild type, A and E) were subcloned as YFP-NPM fusions into pEYFP-C1. The plasmid encoding YFP-CRM1 has been previously described, and pEYFP-C1 was used as its corresponding negative control. As a positive control in cell localization assays, a previously described plasmid encoding Flag-tagged Survivin fused to a heterologous NLS (“SurvNLS”) was used. To test the export activity of a novel putative NES in the C-terminal domain of wild type NPM, a DNA fragment encoding residues 264–282 was cloned into the plasmid Rev (1.4)-GFP (a gift of Dr. Beric Henderson, University of Sydney), as previously described.
The export activity of a novel putative NES in the C-terminal domain of NPM was tested using an established in vivo nuclear export assay in HeLa cells (see Supporting Information for further experimental details).
Supplementary file pone.0130610.s001.tif: S1 Fig A novel candidate NES (cNES) in NPM is not active in a nuclear export assay. […] Fluorescence microscopy images in panel B show the localization of the different proteins. […] More than 200 cells were counted per sample. […]

CRM1^HA [4] = molecular target: T1, CRM1^HA; test: Size exclusion chromatography of NPM / CRM1^HA complex formation; assay type: binding
Method: Chromatography-based binding experiments
[…] Then 100 μL were loaded onto a Superdex 200 10/30 column (GE Healthcare), equilibrated in buffer 20 mM Tris/HCl, pH 7.4, 100 mM NaCl, 5 mM DTT, 2 mM MgCl2. Runs were performed at 15°C and a flow rate of 0.2 mL / min. The eluted fractions were analyzed by SDS-PAGE. TFP-NES/CRM1^HA complex formation was also tested by Ni-NTA chromatography (see Supporting Information).
Fig 3 Native-like properties of CRM1^HA “high affinity” mutant and formation of complexes between this CRM1 variant and AML-related NPM mutants. (A) Circular dichroism thermal denaturation profiles of wild type CRM1 and CRM1^HA, followed by ellipticity at 222 nm as a function of temperature. […] When evaluating the relative amounts of the complex and free NPM, one should take into account that absorbance at 280 nm is lower for the mutants (especially NPMmutA) than for wild type NPM, since wild type NPM contains two Trp residues per subunit, NPMmutE one, and NPMmutA none. […] They are detected in the fractions containing the complex probably due to formation of mixed oligomers with the full length species and/or incomplete resolution from free NPM. […]

- Kd (CRM1^HA [1]; NES ligand (35–180 μM) titrated onto CRM1^HA (2–14 μM), 20 mM HEPES pH 7.4, 50 mM NaCl, 1 mM TCEP, 1 mM MgCl2, independent binding sites model): 2.38 ± 0.698 µM
- ΔH (CRM1^HA [1]; NES ligand titrated onto CRM1^HA, 20 mM HEPES pH 7.4): -14.5 ± 6.2 kcal/mol
- -TΔS (CRM1^HA [1]; NES ligand titrated onto CRM1^HA, 20 mM HEPES pH 7.4, from ΔG = ΔH − TΔS): 6.9 ± 6.1 kcal/mol
- n (binding stoichiometry) (CRM1^HA [1]; NES ligand titrated onto CRM1^HA, 20 mM HEPES pH 7.4, low n of peptides might result from limited solubility): 0.54 ± 0.27
- ΔG (CRM1^HA [1]; NES ligand titrated onto CRM1^HA, 20 mM HEPES pH 7.4, ΔG = -RTlnKA): -7.6 ± 0.1 kcal/mol
- Kd (CRM1^HA [1]; TFP-NES titrated onto CRM1^HA, 20 mM HEPES pH 7.4, rounded): 2.4 µM
- Kd (CRM1^HA [2]; TFP-NES 50 nM, pH 7.4, rounded, read-out: apparent KD): 5 µM
- Kd (CRM1^HA [2]; TFP/YFP-NES construct 50 nM, 20 mM Tris/HCl pH 7.4, 50 mM NaCl, 5 mM DTT, 2 mM MgCl2, at least three measurements per CRM1 concentration, read-out: apparent KD (C50)): 4.97 ± 1.18 µM
- CRM1^HA binding in Ni-NTA chromatography (CRM1^HA [3]): not even detected in these conditions
Substance: DLCLAVEEVSLRK [TFP-mutA(NES), NES of NPM mutant A as C-terminal fusion to teal fluorescent protein]

Substance: VEAKFINYVKNCFRMTDQE [NPM cNES, candidate NES in C-terminal domain of NPM, tested as Rev(1.4)-GFP fusion]
- nuclear export activity (HeLa cells): not functional as a nuclear export signal
- nuclear export activity (HeLa cells; listed as 268-FINYVKNCFRM-278): inactive

- complex formation with CRM1^HA (CRM1^HA [4]; SEC, 40 μM NPM + 140 μM CRM1^HA (data not shown)): failed to produce any detectable complex
Substance: wild type NPM: nucleophosmin, pentameric nucleolar protein
- complex formation with CRM1^HA (CRM1^HA [4]; SEC Superdex 200, 20 μM (pentamer) NPM + 40 μM CRM1^HA, 30 min room temperature, run at 15°C, 20 mM Tris/HCl pH 7.4, 100 mM NaCl, mutant preparations partly C-terminally degraded): did not result in any complex stable enough as to be detected by SEC
